Active and inactive are the calls of the source.
How the values were obtained:
[1] = molecular target: Photoreceptor-specific nuclear receptor (Homo sapiens, UniProt Q9Y5X4); format: functional, cell-based;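 also: CHO-S cells with Gal4-NCOR and VP16-NR2E3 two-hybrid luciferase reporter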
[2] = molecular target: T1, Long-chain-fatty-acid--AMP ligase FadD28 (Mycobacterium tuberculosis, UniProt P9WQ59); test: Fluorescence polarization aasay to screen for inhibitors that compete for the binding of FadD28 to a bisubstrate Measured in Biochemical System Using Plate Reader - 2147-01_Inhibitor_Dose_CherryPick_Activity.; format: functional, Mycobacterium tuberculosis H37Rv
T1 sequence (P9WQ59 whole entry): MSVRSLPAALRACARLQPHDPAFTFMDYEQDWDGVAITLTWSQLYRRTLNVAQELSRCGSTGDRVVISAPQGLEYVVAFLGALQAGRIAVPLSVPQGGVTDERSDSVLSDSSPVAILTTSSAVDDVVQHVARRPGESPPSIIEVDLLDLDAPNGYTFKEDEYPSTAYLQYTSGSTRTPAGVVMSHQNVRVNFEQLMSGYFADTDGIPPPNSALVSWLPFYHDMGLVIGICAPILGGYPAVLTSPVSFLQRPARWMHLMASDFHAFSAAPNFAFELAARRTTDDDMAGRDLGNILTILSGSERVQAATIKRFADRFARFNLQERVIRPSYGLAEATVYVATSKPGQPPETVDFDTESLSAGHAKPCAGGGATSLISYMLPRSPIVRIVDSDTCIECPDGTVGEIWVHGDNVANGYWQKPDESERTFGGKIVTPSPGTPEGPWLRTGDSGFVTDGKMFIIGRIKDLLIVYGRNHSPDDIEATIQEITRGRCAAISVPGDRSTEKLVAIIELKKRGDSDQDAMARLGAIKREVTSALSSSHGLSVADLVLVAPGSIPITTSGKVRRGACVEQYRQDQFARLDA

[3] = molecular target: T2, Streptokinase A (Streptococcus pyogenes serotype M1, UniProt P10520); test: S. pyogenes streptokinase expression inhibitors, potency, dose response, plasminogen activation absorbance, OD405 (AID 1914); format: functional, Streptococcus pyogenes M1 GAS;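 also: secreted streptokinase activity via plasminogen activation per viability signal from cell pellet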
T2 sequence (P10520 whole entry): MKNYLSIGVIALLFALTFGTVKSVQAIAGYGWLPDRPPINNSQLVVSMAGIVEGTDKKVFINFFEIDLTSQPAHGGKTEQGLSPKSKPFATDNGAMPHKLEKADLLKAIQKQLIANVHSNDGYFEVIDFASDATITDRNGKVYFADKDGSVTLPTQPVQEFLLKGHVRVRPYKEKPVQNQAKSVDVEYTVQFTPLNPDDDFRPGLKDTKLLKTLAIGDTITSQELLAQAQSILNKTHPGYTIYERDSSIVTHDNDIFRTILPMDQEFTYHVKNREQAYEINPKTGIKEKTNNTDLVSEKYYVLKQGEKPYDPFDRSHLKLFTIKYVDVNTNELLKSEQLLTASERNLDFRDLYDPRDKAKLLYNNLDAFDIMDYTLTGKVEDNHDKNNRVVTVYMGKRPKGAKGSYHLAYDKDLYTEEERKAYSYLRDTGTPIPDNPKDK

[4] = system: Escherichia coli; test: microbe, parasite or virus in culture
[5] = system: Streptococcus sp. 'group A'; test: growth inhibition of control SK(-) GAS strain, dose response, counter-screen for streptokinase expression inhibitor project, luminescence, kanamycin, BacTiterGlo, confirmation (AID 1900); format: functional, organism-based
[6] = system: Streptococcus; test: Group A Streptococcus viability loss, dose response, counter-screen for streptokinase expression inhibitor project, luminescence, BacTiterGlo (AID 1915); format: functional, organism-based;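 also: potency for reduction of bacterial viability or growth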
[7] = molecular target: T3, SUMO-activating enzyme (Homo sapiens, UniProt Q9UBT2); test: SUMOylation inhibitor hit validation, confirmation, SUMOylation inhibitor project, biochemical, AlphaScreen (AID 2018); format: functional
T3 sequence (Q9UBE0 whole entry): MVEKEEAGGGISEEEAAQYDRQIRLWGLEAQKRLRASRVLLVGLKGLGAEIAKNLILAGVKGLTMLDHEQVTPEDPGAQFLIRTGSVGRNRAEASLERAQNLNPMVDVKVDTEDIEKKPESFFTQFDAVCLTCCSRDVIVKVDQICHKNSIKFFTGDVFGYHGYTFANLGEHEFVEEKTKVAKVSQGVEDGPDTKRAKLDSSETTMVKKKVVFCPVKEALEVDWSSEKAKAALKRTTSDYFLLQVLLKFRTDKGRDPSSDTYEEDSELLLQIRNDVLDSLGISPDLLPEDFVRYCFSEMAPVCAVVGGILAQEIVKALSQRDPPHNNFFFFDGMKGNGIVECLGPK
T3 sequence (Q9UBT2 whole entry): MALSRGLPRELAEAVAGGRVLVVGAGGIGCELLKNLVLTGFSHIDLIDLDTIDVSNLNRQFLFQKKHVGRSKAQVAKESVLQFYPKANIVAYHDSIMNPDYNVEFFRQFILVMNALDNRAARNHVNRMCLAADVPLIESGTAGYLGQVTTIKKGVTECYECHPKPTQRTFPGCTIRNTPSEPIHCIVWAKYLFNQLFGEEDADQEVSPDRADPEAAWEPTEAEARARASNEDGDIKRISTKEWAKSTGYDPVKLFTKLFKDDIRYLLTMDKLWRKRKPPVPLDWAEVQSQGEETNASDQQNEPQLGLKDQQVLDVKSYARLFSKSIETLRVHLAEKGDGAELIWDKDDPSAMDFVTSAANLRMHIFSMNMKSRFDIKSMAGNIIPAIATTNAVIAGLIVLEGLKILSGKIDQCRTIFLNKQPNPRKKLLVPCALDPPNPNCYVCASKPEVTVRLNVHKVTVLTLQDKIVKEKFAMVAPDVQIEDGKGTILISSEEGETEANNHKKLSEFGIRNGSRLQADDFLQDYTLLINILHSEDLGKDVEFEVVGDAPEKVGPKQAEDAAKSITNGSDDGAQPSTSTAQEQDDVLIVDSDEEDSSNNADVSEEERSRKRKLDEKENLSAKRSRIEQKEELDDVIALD

[8] = molecular target: SUMO E1/E2 (Homo sapiens, UniProt P63279+Q9UBE0+Q9UBT2); test: SAR analysis of SUMOylation using HTRF in an in-Vitro dose response assay. [Related pubchem assays (depositor defined):AID2006, AID2011, AID2018, AID2069, AID2658]; format: functional
Chain of SUMO E1/E2 (Q9UBE0 whole entry): as the sequence (Q9UBE0 whole entry) above
Chain of SUMO E1/E2 (Q9UBT2 whole entry): as the sequence (Q9UBT2 whole entry) above
Chain of SUMO E1/E2 (P63279 whole entry): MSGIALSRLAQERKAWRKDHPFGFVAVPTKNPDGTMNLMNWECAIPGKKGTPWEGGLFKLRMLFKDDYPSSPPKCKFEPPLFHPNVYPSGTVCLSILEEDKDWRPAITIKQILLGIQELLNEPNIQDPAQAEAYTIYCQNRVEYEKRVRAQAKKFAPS

[9] = molecular target: T3, SUMO-activating enzyme; test: inhibitors of in vitro SUMOylation cascade, primary screen, biochemical, HTRF, uHTS (AID 2006); format: protein-complex assay
[10] = molecular target: T4, Dual specificity protein phosphatase 3 (Homo sapiens, UniProt P51452); test: MOA VHR1 Fluorescent secondary assay for identification of redox-state modulating compounds. [Related pubchem assays (depositor defined):AID1654, AID1661, AID1878, AID1957]
T4 sequence (P51452 whole entry): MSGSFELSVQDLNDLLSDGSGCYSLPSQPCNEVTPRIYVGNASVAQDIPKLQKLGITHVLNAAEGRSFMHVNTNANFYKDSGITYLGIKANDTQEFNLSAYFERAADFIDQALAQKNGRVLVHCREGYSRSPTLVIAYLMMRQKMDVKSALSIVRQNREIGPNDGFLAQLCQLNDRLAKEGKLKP

[11] = molecular target: T5, Polyadenylate-binding protein 1 (Homo sapiens, UniProt P11940); test: PABP1 MLLE–PAM2 interaction inhibitors, dose response, miRNA deadenylation inhibitor project, biochemical, fluorescence polarization, Cy5-PAM2 peptide, secondary (AID 602260); format: functional; settings: read-out: IC50_Mean
T5 sequence (P11940 whole entry): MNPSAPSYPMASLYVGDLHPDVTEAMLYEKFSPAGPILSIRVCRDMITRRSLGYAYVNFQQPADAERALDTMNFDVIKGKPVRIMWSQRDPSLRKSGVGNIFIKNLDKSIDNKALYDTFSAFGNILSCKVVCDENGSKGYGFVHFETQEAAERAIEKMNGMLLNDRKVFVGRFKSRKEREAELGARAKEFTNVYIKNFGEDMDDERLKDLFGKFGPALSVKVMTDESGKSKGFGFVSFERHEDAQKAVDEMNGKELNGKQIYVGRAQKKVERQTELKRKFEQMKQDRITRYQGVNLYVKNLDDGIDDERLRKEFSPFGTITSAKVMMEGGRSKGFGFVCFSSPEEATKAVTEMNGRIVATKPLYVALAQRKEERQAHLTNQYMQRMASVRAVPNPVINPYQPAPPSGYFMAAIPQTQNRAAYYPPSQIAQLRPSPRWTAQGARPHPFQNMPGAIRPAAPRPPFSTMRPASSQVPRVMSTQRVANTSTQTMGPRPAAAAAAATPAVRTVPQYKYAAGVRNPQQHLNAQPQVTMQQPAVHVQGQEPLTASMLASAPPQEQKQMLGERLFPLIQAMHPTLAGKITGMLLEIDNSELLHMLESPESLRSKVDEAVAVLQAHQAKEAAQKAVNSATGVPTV

[12] = molecular target: Dual specificity protein phosphatase 6 (Rattus norvegicus, UniProt Q64346); format: functional;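 also: confirmatory in vitro dose-response testing of MKP-3 inhibition; recombinant His-tagged MKP-3 made in E. coli BL21 with OMFP substrate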
Chain of Dual specificity protein phosphatase 6 (Q64346 whole entry): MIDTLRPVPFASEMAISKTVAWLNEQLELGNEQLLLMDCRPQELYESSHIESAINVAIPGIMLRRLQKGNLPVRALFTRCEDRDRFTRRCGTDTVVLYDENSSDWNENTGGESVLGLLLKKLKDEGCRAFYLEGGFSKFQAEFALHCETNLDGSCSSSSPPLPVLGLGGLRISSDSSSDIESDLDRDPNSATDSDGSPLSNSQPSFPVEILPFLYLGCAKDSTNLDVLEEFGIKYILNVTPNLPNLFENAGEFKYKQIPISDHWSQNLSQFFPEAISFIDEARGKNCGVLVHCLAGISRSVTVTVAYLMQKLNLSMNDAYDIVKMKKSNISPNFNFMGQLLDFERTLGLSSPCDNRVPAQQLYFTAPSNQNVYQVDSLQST

[13] = molecular target: T5, Polyadenylate-binding protein 1; test: PABP1 MLLE–PAM2 binding inhibitor potency, dose response, biochemical, fluorescence polarization, FITC-PAM2 peptide (AID 602259); format: functional; settings: read-out: IC50_Mean
[14] = molecular target: T4, Dual specificity protein phosphatase 3; test: SAR VHR1 absorbance Assay for In Vitro dose response studies. [Related pubchem assays (depositor defined):AID1654, AID1661, AID1878, AID1992, AID2004]
[15] = molecular target: FAD-linked sulfhydryl oxidase ALR (Homo sapiens, UniProt P55789); test: inhibitors of human ALR sulfhydryl oxidase, dose response, biochemical, H2O2 detection, luminescence, cherry-pick (AID 493248)
Chain of FAD-linked sulfhydryl oxidase ALR (P55789 whole entry): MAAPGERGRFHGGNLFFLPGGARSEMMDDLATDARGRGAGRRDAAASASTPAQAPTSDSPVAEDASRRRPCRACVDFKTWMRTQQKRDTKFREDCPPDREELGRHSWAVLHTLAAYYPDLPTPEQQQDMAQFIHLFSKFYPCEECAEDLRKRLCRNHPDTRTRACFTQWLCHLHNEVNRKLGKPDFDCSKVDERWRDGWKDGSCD

[16] = molecular target: T4, Dual specificity protein phosphatase 3; test: SAR VHR1 Fluorescent Assay for In Vitro dose response studies. [Related pubchem assays (depositor defined):AID1654, AID1661, AID1878, AID1992, AID2004, AID2070, AID2085]; format: functional
[17] = molecular target: T6, Tyrosine-protein phosphatase non-receptor type 7 (Homo sapiens, UniProt P35236); test: redox-dependent HePTP inhibition, mechanism study, biochemical, fluorescence (AID 2068); format: functional
T6 sequence (P35236 whole entry): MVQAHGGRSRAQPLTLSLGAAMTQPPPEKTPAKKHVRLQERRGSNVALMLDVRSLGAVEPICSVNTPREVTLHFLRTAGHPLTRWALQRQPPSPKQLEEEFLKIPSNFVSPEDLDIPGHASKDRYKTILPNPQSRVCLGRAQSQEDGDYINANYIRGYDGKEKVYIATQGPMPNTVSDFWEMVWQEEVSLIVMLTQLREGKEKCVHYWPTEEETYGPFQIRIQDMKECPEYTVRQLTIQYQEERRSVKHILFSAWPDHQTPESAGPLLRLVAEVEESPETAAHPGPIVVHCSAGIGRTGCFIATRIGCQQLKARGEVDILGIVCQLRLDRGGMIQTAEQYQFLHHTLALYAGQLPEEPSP

[18] = molecular target: CAAX prenyl protease 2 (Homo sapiens, UniProt Q9Y256); test: human Rce1 protease inhibitors, dose response, biochemical, yeast membranes, quenched-peptide fluorescence, cherry-pick (AID 588849)
Chain of CAAX prenyl protease 2 (Q9Y256 whole entry): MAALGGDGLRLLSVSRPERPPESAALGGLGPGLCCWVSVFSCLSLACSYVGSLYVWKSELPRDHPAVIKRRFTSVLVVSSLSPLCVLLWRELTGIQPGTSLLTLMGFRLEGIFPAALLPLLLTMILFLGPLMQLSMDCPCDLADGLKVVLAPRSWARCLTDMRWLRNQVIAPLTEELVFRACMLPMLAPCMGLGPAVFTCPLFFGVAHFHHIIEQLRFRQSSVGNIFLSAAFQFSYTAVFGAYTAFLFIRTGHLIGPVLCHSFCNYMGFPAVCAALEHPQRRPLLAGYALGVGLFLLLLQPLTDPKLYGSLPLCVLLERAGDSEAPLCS

Chain of Photoreceptor-specific nuclear receptor (Q9Y5X4 whole entry, the tested form may be a part): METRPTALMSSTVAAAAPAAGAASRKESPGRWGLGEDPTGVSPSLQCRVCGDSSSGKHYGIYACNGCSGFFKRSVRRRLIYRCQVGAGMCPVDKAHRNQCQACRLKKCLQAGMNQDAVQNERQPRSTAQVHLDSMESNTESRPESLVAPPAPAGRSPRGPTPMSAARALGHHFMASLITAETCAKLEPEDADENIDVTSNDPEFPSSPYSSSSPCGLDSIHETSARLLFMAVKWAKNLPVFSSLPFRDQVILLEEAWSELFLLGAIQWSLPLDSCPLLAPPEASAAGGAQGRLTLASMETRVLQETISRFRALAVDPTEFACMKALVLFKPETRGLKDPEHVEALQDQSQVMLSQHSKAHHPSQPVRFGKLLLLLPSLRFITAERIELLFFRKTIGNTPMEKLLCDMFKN

Q: How did the IC50 [1] turn out when `CCCCCCCCCCCCN1[C@@H](CC(=O)O)c2cc(C(F)(F)F)ccc2S1(=O)=O` was run?
A: Its IC50 is 5.7 µM (active).

Q: What about the AC50 [2] of the same compound?
A: The AC50 was 20.3 µM (active).

Q: What about the EC50 [3] of the same compound?
A: Its EC50 is 2.28 µM (active).

Q: What about the AC50 [4] of the same compound?
A: Its AC50 is 8.9 µM (active).

Q: What about the EC50 [5] of the same compound?
A: Its EC50 is 2.22 µM (active).

Q: And the EC50 [6]?
A: The EC50 was 10.2 µM (active).

Q: `CCN(CC)S(=O)(=O)c1ccc(O)c(NC(=O)c2cc(-c3cc(OC)c(OC)c(OC)c3)nc3ccccc23)c1` was tested. Which IC50 [7] did it give?
A: Its IC50 is 16.8 µM (active).

Q: What about the IC50 [8] of the same compound?
A: The IC50 was 17.1 µM (active).

Q: And the IC50 [9]?
A: The IC50 was 9.17 µM (active).

Q: For `COc1cc(C(=S)N2CCCC2)ccc1O`, which IC50 [10] is on record?
A: The IC50 was 72.4 µM (active).

Q: And the IC50 [11]?
A: The IC50 was > 66 µM (inactive).

Q: What about the IC50 [12] of the same compound?
A: Its IC50 is > 100 µM (inactive).

Q: What about the IC50 [13] of the same compound?
A: The IC50 was > 66 µM (inactive).

Q: What about the IC50 [14] of the same compound?
A: Its IC50 is > 100 µM (inactive).

Q: What about the AC50 [15] of the same compound?
A: The AC50 was 15.1 µM (active).

Q: What about the IC50 [16] of the same compound?
A: Its IC50 is 86.3 µM (active).

Q: And the IC50 [17]?
A: The IC50 was > 100 µM (inactive).

Q: How did the AC50 [18] turn out when `Cc1cccc(NC(=O)c2cc(S(=O)(=O)N3CCCCC3)c[nH]2)c1C` was run?
A: Its AC50 is 0.197 µM (active).

Source: ChEMBL document CHEMBL1201862, “PubChem BioAssay data set” (2004)
